Values joined by “and” are separate entries in the source; they are usually repeats but may differ in a detail not shown here. Equal entries are not always repeated. Where two headings read alike, the source gives them in different places.
Legend:
[1] = Octanol/PBS partition coefficient, shake-flask method; assay type: physicochemical; settings: 32 °C, pH 7.4, n = 3
Procedure: Octanol/PBS partition coefficients were measured by the shake-flask method at 32 °C, pH 7.4.

[2] = target: isolated bovine heart complex I (Bos taurus, UniProt P03887+P03898+P17694+P42026); experiment: NADH:decylubiquinone oxidoreduction by isolated complex I; assay type: biochemical; settings: for HillSlope (best fit value) / LogIC50 (best fit value): Prism fit; for HillSlope (best fit value): no std. error; for remaining activity at 50 µM: inhibitor 0.05 mM; for remaining activity at 100 µM: inhibitor 0.10 mM; for remaining activity at 500 µM: inhibitor 0.50 mM; for remaining activity at 1000 µM: inhibitor 1.00 mM; for remaining activity at 5000 µM: inhibitor 5.00 mM; for LogIC50 (best fit value): log of IC50 in mM; for remaining activity at 200 µM: inhibitor 0.20 mM; for remaining activity at 2000 µM: inhibitor 2.00 mM
Procedure: Complex I and mitochondrial membranes were prepared from Bos taurus (bovine) heart. Intact mitochondria were isolated from rat liver and mouse heart and liver. Membranes were prepared from mouse heart mitochondria by 5 s bursts of sonication at 4 °C and collected by centrifugation (75,000 × g, 1 h).
Assays were performed at 32 °C in a SpectraMax 96-well plate reader. NADH:decylubiquinone oxidoreduction by complex I at 0.5 μg mL^−1 was measured in 20 mM Tris-HCl (pH 7.2), 0.15 % soy bean asolectin (Avanti Polar Lipids), and 0.15 % 3-((3-cholamidopropyl)dimethylammonium)-1-propanesulfonate (CHAPS, Merck Chemicals Ltd), with 200 μM decylubiquinone and 200 μM NADH, and monitored using ε340–380(NADH) = 4.81 mM^−1 cm^−1 [23]. Catalysis was initiated by addition of NADH and maximal rates determined by linear regression. NADH:O2 oxidoreduction by membranes was measured similarly but using 5 μg mL^−1 membranes in 10 mM Tris-HCl (pH 7.4) and 250 mM sucrose using 200 μM NADH and supplemented with 0.15 mM horse heart cytochrome c (Sigma-Aldrich Ltd.). Succinate:O2 oxidoreduction was measured using 40 μg mL^−1 membranes in 5 mM succinate in 10 mM Tris-HCl (pH 7.4) as described previously. Control experiments included NaCl (to match the ionic strength) or DMSO, as appropriate.
Experimental values are reported as mean averages ± standard deviation (SD) of technical replicates for large sample sizes and mean averages ± standard error of the mean (SEM) of technical replicates for small sample sizes. Data were analyzed by the unpaired two-tailed Student’s t test. IC50 values were determined using the standard dose-effect relationship (activity (%) = 100 × IC50 / (IC50 + [inhibitor]^m) with the Hill Slope (m) set to unity for purified complex I) and are reported with 95 % confidence intervals.

143B cells = experiment: Membrane potential measurement by TMRM fluorescence; assay type: cell-based, human
Procedure: 143B cells were seeded at 5 × 10^5 cells per 10 cm^2 well in DMEM containing 10 % FBS. […] The detached cells from each well were incubated in PBS containing 25 pg/mL tetramethylrhodamine, methyl ester (TMRM) and 20 μg/mL Hoescht stain for 20 min at 37 °C then washed twice and re-suspended in 200 μL PBS. TMRM fluorescence was detected using a NucleoCounter® NC 3000 cytometer with excitation at 530 nm and emission at 575 nm, with the Hoescht stain used to check for consistent cell density between samples.

[3] = bovine heart purified mitochondrial complex I
[4] = bovine heart purified mitochondrial complex I, Prism log(inhibitor) vs. response fit, Bottom 0, Top 100, read-out: IC50 (best fit value)
[5] = bovine heart purified mitochondrial complex I, read-out: average % (rate, % of no-inhibitor control)

isolated bovine heart complex I, sequence (P42026 38-216): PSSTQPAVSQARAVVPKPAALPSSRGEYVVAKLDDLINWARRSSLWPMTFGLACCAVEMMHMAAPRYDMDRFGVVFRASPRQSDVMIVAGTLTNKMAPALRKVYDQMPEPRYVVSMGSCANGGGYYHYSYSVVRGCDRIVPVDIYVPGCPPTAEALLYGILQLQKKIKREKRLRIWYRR
isolated bovine heart complex I, sequence (P17694 34-463): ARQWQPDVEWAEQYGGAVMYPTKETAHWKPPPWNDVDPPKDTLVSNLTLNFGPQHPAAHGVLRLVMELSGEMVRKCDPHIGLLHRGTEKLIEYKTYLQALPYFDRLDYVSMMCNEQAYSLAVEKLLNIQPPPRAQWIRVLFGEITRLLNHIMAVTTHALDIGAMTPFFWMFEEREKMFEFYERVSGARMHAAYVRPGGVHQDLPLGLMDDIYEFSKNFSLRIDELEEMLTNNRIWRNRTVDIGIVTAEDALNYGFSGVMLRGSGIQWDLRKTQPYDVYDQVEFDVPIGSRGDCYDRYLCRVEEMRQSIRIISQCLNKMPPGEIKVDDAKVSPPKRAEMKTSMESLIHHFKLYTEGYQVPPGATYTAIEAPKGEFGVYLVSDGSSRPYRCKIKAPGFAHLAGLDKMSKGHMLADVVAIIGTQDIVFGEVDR
isolated bovine heart complex I, sequence (P03898 whole entry): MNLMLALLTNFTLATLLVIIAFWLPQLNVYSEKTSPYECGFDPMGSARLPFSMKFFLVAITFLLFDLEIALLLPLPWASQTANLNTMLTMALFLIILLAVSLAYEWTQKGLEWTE
isolated bovine heart complex I, sequence (P03887 whole entry): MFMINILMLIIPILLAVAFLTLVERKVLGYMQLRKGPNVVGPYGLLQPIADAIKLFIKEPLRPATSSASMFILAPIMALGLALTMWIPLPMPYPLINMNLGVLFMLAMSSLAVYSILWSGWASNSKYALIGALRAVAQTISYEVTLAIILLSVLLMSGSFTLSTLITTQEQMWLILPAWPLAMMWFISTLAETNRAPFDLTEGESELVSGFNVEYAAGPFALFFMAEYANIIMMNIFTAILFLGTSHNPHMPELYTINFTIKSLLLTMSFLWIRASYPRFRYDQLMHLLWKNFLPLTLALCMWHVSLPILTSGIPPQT

Compound | logP [1] | P (partition coefficient) [1] | HillSlope (best fit value) [2, 3] | IC50 [2, 4] [µM] | remaining activity at 50 µM [2, 5] [%] | remaining activity at 100 µM [2, 5] [%] | remaining activity at 500 µM [2, 5] [%] | remaining activity at 1000 µM [2, 5] [%] | remaining activity at 5000 µM [2, 5] [%] | LogIC50 (best fit value) [2, 3] | remaining activity at 200 µM [2, 5] [%] | remaining activity at 2000 µM [2, 5] [%] | also measured
NC(N)=NC(N)=NCCc1ccc(Cl)cc1 [compound 1, 2-[2-(4-chlorophenyl)ethyl]-1-(diaminomethylidene)guanidine] | 0.149 | – | 1 | 195 | 78.7 | 67.7 | 28.6 | 15.1 | 1.32 | -0.7098 | – | – | remaining activity at 250 µM ([2]; bovine heart purified mitochondrial complex I, inhibitor 0.25 mM, read-out: average % (rate, % of no-inhibitor control)): 44.8%; remaining activity at 2500 µM ([2]; bovine heart purified mitochondrial complex I, inhibitor 2.50 mM, read-out: average % (rate, % of no-inhibitor control)): 2.59%
N=C(N)NC(N)=Nc1ccccc1 [compound 2, phenyl biguanide] | -0.627 | 0.236 | 1 | – | – | – | – | – | – | -0.3388 | – | – | IC50 [2]: 458 µM
NC(N)=NC(N)=NCc1ccccc1 [compound 3, 2-benzyl-1-(diaminomethylidene)guanidine] | -0.734 | 0.184 | 1 | 567 | – | 80 | 52.1 | 41 | 15.6 | -0.2463 | 65.6 | 27.6 | remaining activity at 10000 µM ([2]; bovine heart purified mitochondrial complex I, inhibitor 10.00 mM, read-out: average % (rate, % of no-inhibitor control)): 4.7%
[H]/N=C(/N)N/C(=N/[H])NCCc1ccccc1 [phenformin, reference compound] | – | – | – | – | – | – | – | – | – | – | – | – | TMRM fluorescence, % of the control value (143B cells; after 6.5 h, phenformin at IC50/10 (34 μM), FCCP at 1 μM, n = 3): 22.4 ± 2.9%; mean-y (TMRM) (143B cells; individual replicates, phenformin 6.5 hours): 3427.6 and 3669.9 and 3614.5; TMRM average (143B cells; n 3, phenformin 6.5 hours): 3570.67; TMRM average, % control (143B cells; n 3, phenformin 6.5 hours): 22.44 % control

Further lines, with some results ahead:

logP [1] | P (partition coefficient) [1] | Compound | HillSlope (best fit value) [2, 3] | IC50 [2, 4] [µM] | remaining activity at 50 µM [2, 5] [%] | remaining activity at 100 µM [2, 5] [%] | remaining activity at 500 µM [2, 5] [%] | remaining activity at 1000 µM [2, 5] [%] | remaining activity at 5000 µM [2, 5] [%] | LogIC50 (best fit value) [2, 3] | remaining activity at 200 µM [2, 5] [%] | remaining activity at 2000 µM [2, 5] [%] | also measured
-1.21 | 0.061 | CC(C)N=C(N)N=C(N)N [compound 4, 1-(diaminomethylidene)-2-(propan-2-yl)guanidine] | 1 | 6760 | – | – | – | – | – | 0.8297 | – | – | remaining activity at 620 µM ([2]; bovine heart purified mitochondrial complex I, inhibitor 0.62 mM, read-out: average % (rate, % of no-inhibitor control)): 88.4%; remaining activity at 1560 µM ([2]; bovine heart purified mitochondrial complex I, inhibitor 1.56 mM, read-out: average % (rate, % of no-inhibitor control)): 84.5%; remaining activity at 3000 µM ([2]; bovine heart purified mitochondrial complex I, inhibitor 3.00 mM, read-out: average % (rate, % of no-inhibitor control)): 70.3%; remaining activity at 5800 µM ([2]; bovine heart purified mitochondrial complex I, inhibitor 5.80 mM, read-out: average % (rate, % of no-inhibitor control)): 54.5%; remaining activity at 15620 µM ([2]; bovine heart purified mitochondrial complex I, inhibitor 15.62 mM, read-out: average % (rate, % of no-inhibitor control)): 30.1%; remaining activity at 31250 µM ([2]; bovine heart purified mitochondrial complex I, inhibitor 31.25 mM, read-out: average % (rate, % of no-inhibitor control)): 16.1%; remaining activity at 62500 µM ([2]; bovine heart purified mitochondrial complex I, inhibitor 62.50 mM, read-out: average % (rate, % of no-inhibitor control)): 5.52%
0.528 | 3.371 | CC(C)N=C(N)N=C(N)NC(C)C [compound 5, N-(propan-2-yl)-1-3-(propan-2-yl)carbamimidamidomethanimidamide] | 1 | 246 | 79.4 | 70.7 | – | 20.8 | – | -0.609 | 55.4 | 12.9 | remaining activity at 400 µM ([2]; bovine heart purified mitochondrial complex I, inhibitor 0.40 mM, read-out: average % (rate, % of no-inhibitor control)): 37.9%; remaining activity at 4000 µM ([2]; bovine heart purified mitochondrial complex I, inhibitor 4.00 mM, read-out: average % (rate, % of no-inhibitor control)): 9.93%
